Reference: patent US10662204B2 (PFIZER INC., priority 2018, dated 2020)

What was measured:
[1] = biological target: T1, GDP-loaded KRAS (1-169) G12C, C51S, C80L, C118S (Homo sapiens, UniProt P01116, C118S/C51S/C80L/G12C); experiment: Mass Spectrometry Reactivity Assay (MSRA): covalent adduct of compound and KRAS G12C, Percent Modification; format: binding; conditions: for MSRA (% modification) 5.0 μM 0.25 hr / MSRA (% modification) 5.0 μM 0.017 hr: 5.0 μM compound; for MSRA (% modification) 10 μM 0.25 hr / MSRA (% modification) 10 μM 0.50 hr: 10 μM compound
T1 construct: GDP-loaded KRAS (1-169) G12C, C51S, C80L, C118S
In short: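 Covalent labelling is measured by intact mass: deconvoluted modified and unmodified peak intensities yield percent modification. Compound, usually 5 μM or 10 μM final, reacts at room temperature with 5 μM GDP-bound KRAS G12C (1-169, C51S/C80L/C118S) in Hepes pH 7.5/NaCl/glycerol, sampled at 1, 15, 30, 60 min.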

[2] = biological target: KRAS G12C (Homo sapiens, UniProt P01116, G12C); experiment: Cell Activity Assay: accumulation of GDP-bound KRAS G12C in MIAPaCa-2 cells (Raf-1 RBD capture, MSD readout); format: cell-based; parameters: endogenous in cells; host or cells: MIAPaCa-2; conditions: 6 hours, assay limit is 30.00
In short: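 IC50 came from a 4-parameter fit of Ras signal normalized between DMSO and full-inhibition controls. Readout: lysate GTP-Ras bound to immobilized Raf-1 RBD, quantified with pan-Ras antibody and MSD electrochemiluminescence. Lysates derived from MIAPaCa-2 cells treated 6 h with serially diluted compound, 0.3% DMSO.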

Row | Compound | MSRA (% modification) 5.0 μM 0.25 hr [1] | MSRA (% modification) 10 μM 0.25 hr [1] | MSRA (% modification) 10 μM 0.50 hr [1] | IC50 [2] | MSRA (% modification) 5.0 μM 0.017 hr [1]
1 | C=CC(=O)N1CCN(c2nc(OC[C@H]3CCCN3C)nc3c(Oc4c(Cl)c(F)cc5[nH]ncc45)nccc23)CC1 [Example 17E, 1-[4-(8-[(5-chloro-6-fluoro-1H-indazol-4-yl)oxy]-2-{[(2R)-1-methylpyrrolidin-2-yl]methoxy}pyrido[3,4-d]pyrimidin-4-yl)piperazin-1-yl]prop-2-en-1-one] | 76% | 80% | 83% | 0.197 µM | 
2 | C=CC(=O)N1CCN(c2nc(Oc3cccnc3OC)nc3c(Oc4c(Cl)c(F)cc5[nH]ncc45)nccc23)CC1 [Example 08I, 1-(4-{8-[(5-chloro-6-fluoro-1H-indazol-4-yl)oxy]-2-[(2-methoxy-pyridin-3-yl)oxy]pyrido [3,4-d]pyrimidin-4-yl}piperazin-1-yl)prop-2-en-1-one] | 65% |  |  | 0.265 µM | 
3 | C=CC(=O)N1CCN(c2nc(O[C@@H]3CN(C)C[C@H]3O)nc3c(Oc4c(Cl)c(F)cc5[nH]ncc45)nc(Cl)cc23)CC1 [Example 37G, 1-[4-(6-chloro-8-[(5-chloro-6-fluoro-1H-indazol-4-yl)oxy]-2-{[(3R,4R)-4-hydroxy-1-methylpyrrolidin-3-yl]oxy}pyrido[3,4-d]pyrimidin-4-yl)piperazin-1-yl]prop-2-en-1-one] |  |  |  | 0.338 µM | 37%
4 | C=CC(=O)N1CCN(c2nc(OC[C@@H]3CCN(C)C3)nc3c(Oc4c(C)ccc5[nH]ncc45)nccc23)CC1 [Example 10B, 1-[4-(8-[(5-methyl-1H-indazol-4-yl)oxy]-2-{[(3R)-1-methylpyrrolidin-3-yl]methoxy}pyrido[3,4-d]pyrimidin-4-yl)piperazin-1-yl]prop-2-en-1-one] |  | 60% |  | 13.4 µM | 
5 | C=CC(=O)N1CCN(c2nc(Oc3cnn(C)c3)nc3c(Oc4c(Cl)c(F)cc5[nH]ncc45)nccc23)CC1 [Example 09I, 1-(4-{8-[(5-chloro-6-fluoro-1H-indazol-4-yl)oxy]-2-[(1-methyl-1H-pyrazol-4-yl)oxy]pyrido [3,4-d]pyrimidin-4-yl}piperazin-1-yl)prop-2-en-1-one] | 44% |  |  | 0.398 µM | 
6 | C=CC(=O)N1CCN(c2nc(OCC3(F)CCN(C)CC3)nc3c(Oc4c(Cl)c(F)cc5[nH]ncc45)nccc23)CC1 [Example 12I, 1-(4-{8-[(5-chloro-6-fluoro-1H-indazol-4-yl)oxy]-2-[(4-fluoro-1-methyl-piperidin-4-yl)methoxy]pyrido [3,4-d]pyrimidin-4-yl}piperazin-1-yl)prop-2-en-1-one] | 78% |  |  | 0.12 µM | 
7 | C=CC(=O)N1CCN(c2nc(OC[C@H]3CCCN3C(C)=O)nc3c(Oc4c(Cl)c(F)cc5[nH]ncc45)nccc23)CC1 [Example 04J, 1-[4-(2-{[(2R)-1-acetylpyrrolidin-2-yl]methoxy}-8-[(5-chloro-6-fluoro-1H-indazol-4-yl)oxy]pyrido[3,4-d]pyrimidin-4-yl)piperazin-1-yl]prop-2-en-1-one] | 64% |  |  | 0.989 µM | 
8 | C=CC(=O)N1CCN(c2nc(OCC3CC(=O)N(C)C3)nc3c(Oc4c(Cl)c(F)cc5[nH]ncc45)nccc23)CC1 (stereo not drawn) [Example 03J, 4-[({4-(4-acryloylpiperazin-1-yl)-8-[(5-chloro-6-fluoro-1H-indazol-4-yl)oxy]pyrido[3,4-d]pyrimidin-2-yl}oxy)methyl]-1-methylpyrrolidin-2-one] | 77% |  |  | 0.855 µM | 
9 | C=CC(=O)N1CCN(c2nc(Oc3cccc4c3CCN(C)C4)nc3c(Oc4c(Cl)c(Cl)cc5[nH]ncc45)nccc23)CC1 [Example 50I, 1-(4-{8-[(5,6-dichloro-1H-indazol-4-yl)oxy]-2-[(2-methyl-1,2,3,4-tetrahydro-isoquinolin-5-yl)oxy]pyrido [3,4-d]pyrimidin-4-yl}piperazin-1-yl)prop-2-en-1-one] |  |  |  | 0.008 µM | 70%
10 | C=CC(=O)N1CCN(c2nc(OC[C@@H]3CCCN3C)nc3c(Oc4c(C)c(Cl)cc5[nH]ncc45)nc(Cl)cc23)CC1 [Example 10G, 1-[4-(6-chloro-8-[(6-chloro-5-methyl-1H-indazol-4-yl)oxy]-2-{[(2S)-1-methylpyrrolidin-2-yl]methoxy}pyrido[3,4-d]pyrimidin-4-yl)piperazin-1-yl]prop-2-en-1-one] |  | 53% |  | 0.071 µM | 
11 | C=CC(=O)N1CCN(c2nc(N3CCN(C)CC3)nc3c(Oc4c(C)ccc5[nH]ncc45)nccc23)CC1 [Example 03B, 1-(4-{8-[(5-methyl-1H-indazol-4-yl)oxy]-2-(4-methylpiperazin-1-yl)pyrido[3,4-d]pyrimidin-4-yl}piperazin-1-yl)prop-2-en-1-one] |  |  | 6% | 27.1 µM | 
12 | C=CC(=O)N1CCN(c2ncnc3c(Oc4c(C)c(C)cc5[nH]ncc45)nccc23)CC1 [Example 12A, 1-(4-{8-[(5,6-dimethyl-1H-indazol-4-yl)oxy]pyrido[3,4-d]pyrimidin-4-yl}piperazin-1-yl)prop-2-en-1-one] |  |  | 38% | 2.95 µM | 
13 | C=CC(=O)N1CCN(c2nc(NCCc3nncn3C)nc3c(Oc4c(C)ccc5[nH]ncc45)cccc23)CC1 [Example 16F, 1-[4-(8-[(5-methyl-1H-indazol-4-yl)oxy]-2-{[2-(4-methyl-4H-1,2,4-triazol-3-yl)ethyl]amino}quinazolin-4-yl)piperazin-1-yl]prop-2-en-1-one] |  |  | 16% | > 30 µM | 
14 | C=CC(=O)N1CCN(c2ncnc3c(Oc4c(C)ccc5[nH]ncc45)cc(Cl)cc23)CC1 [Example 12C, 1-(4-{6-chloro-8-[(5-methyl-1H-indazol-4-yl)oxy]quinazolin-4-yl}piperazin-1-yl)prop-2-en-1-one] |  |  | 34% | 3.91 µM | 
15 | C=CC(=O)N1CCN(c2nc(N3CC[C@H](N(C)C)C3)nc3c(Oc4c(C)ccc5[nH]ncc45)cccc23)CC1 [Example 08E] |  |  | 25% | 10.7 µM | 
16 | C=CC(=O)N1CCN(c2nc(N3CC(N(C)C)C3)nc3c(Oc4c(Cl)c(C)cc5[nH]ncc45)nc(C)cc23)CC1 [Example 01E, 1-(4-{8-[(5-Chloro-6-methyl-1H-indazol-4-yl)oxy]-2-[3-(dimethylamino)azetidin-1-yl]-6-methylpyrido[3,4-d]pyrimidin-4-yl}piperazin-1-yl)prop-2-en-1-one] |  |  | 29% | 2.41 µM | 
17 | C=CC(=O)N1CCN(c2nc(N3CC(C)(C#N)C3)nc3c(Oc4c(Cl)c(F)cc5[nH]ncc45)nc(Cl)cc23)CC1 [Example 02G, 1-{4-(4-acryloylpiperazin-1-yl)-6-chloro-8-[(5-chloro-6-fluoro-1H-indazol-4-yl)oxy]pyrido[3,4-d]pyrimidin-2-yl}-3-methylazetidine-3-carbonitrile] | 73% | 75% |  | 0.584 µM | 
18 | C=CC(=O)N1CCN(c2nc(OC[C@]3(F)CCCN(C)C3)nc3c(Oc4c(Cl)c(F)cc5[nH]ncc45)nccc23)CC1 [Example 02I, 1-[4-(8-[(5-chloro-6-fluoro-1H-indazol-4-yl)oxy]-2-{[(3S)-3-fluoro-1-methylpiperidin-3-yl]methoxy}pyrido[3,4-d]pyrimidin-4-yl)piperazin-1-yl]prop-2-en-1-one] | 81% |  |  | 0.049 µM | 
